# What was measured:
# c-Mer = c-Mer (Homo sapiens (Human), UniProt Q12866); assay: TAM Enzymatic Assay (HTRF), c-Mer; format: biochemical; conditions: 0.0625 nM c-Mer, ATP-containing substrate solution, 60 min
# PI3Kδ = PI3Kδ (Homo sapiens (Human), UniProt O00329); conditions: cited from earlier work
# Tyro3 = Tyro3 (Homo sapiens (Human), UniProt Q06418); assay: TAM Enzymatic Assay (HTRF), Tyro3; format: biochemical; conditions: 0.366 nM Tyro3, 60 min
# Description: The kinase assay buffer contained 50 mM HEPES, pH7.5, 10 mM MgCl2, 1 mM EGTA, 0.01% NP-40 and 2 mM DTT. 0.1 ul test compounds dissolved in DMSO were transferred from compound plates to white 384-well assay plates (Greiner [sequence] plates). […] 4 ul enzyme solution (or assay buffer for the enzyme blank) was added to the appropriate wells in each plate, and then 4 ul/well substrate solution was added to initiate the reaction. The plate was protected from light and incubated at room temperature for 60 min. […] The plate was incubated for 1 h at room temperature, and HTRF (homogenous time resolved fluorescence) signal was measured on a PHERAstar FS plate reader (BMG labtech). Percentage of inhibition was calculated for each concentration and IC50 value was generated from curve fitting with GraphPad Prism software.
# JAK1 = JAK1 (Homo sapiens (Human), UniProt P23458); conditions: cited from earlier work; for JAK2/JAK1: selectivity ratio, IC50 at 1 mM ATP
# Sequence of JAK1 (P23458 whole entry, species assumed): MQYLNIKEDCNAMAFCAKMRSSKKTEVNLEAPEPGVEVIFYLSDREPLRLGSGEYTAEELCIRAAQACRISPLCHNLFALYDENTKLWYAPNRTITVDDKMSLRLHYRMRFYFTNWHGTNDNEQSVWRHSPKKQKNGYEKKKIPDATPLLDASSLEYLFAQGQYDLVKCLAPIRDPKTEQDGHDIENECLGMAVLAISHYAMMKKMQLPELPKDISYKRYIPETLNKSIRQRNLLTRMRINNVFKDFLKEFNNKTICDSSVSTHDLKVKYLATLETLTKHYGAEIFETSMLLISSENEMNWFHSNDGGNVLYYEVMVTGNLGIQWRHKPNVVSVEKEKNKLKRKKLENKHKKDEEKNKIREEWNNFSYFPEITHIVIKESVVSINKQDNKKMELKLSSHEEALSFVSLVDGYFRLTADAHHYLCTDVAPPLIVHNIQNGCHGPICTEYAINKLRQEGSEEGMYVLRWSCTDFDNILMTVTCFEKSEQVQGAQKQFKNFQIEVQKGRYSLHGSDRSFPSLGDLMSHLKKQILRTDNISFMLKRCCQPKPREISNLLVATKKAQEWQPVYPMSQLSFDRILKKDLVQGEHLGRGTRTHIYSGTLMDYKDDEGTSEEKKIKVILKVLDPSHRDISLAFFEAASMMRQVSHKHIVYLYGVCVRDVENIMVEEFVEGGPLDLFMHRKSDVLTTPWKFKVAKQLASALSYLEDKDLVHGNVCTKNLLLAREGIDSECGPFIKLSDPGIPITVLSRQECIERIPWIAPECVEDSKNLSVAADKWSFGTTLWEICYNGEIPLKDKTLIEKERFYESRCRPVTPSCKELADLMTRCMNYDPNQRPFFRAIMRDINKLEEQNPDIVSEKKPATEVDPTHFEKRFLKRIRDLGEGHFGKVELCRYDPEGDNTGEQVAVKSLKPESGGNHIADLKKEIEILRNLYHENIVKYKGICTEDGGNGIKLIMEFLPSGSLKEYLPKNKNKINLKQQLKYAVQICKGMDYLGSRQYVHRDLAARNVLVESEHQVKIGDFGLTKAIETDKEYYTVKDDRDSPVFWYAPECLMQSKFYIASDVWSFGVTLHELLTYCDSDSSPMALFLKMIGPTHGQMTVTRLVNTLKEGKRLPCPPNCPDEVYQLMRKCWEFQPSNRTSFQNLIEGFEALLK
# Sequence of c-Mer (Q12866 21-999): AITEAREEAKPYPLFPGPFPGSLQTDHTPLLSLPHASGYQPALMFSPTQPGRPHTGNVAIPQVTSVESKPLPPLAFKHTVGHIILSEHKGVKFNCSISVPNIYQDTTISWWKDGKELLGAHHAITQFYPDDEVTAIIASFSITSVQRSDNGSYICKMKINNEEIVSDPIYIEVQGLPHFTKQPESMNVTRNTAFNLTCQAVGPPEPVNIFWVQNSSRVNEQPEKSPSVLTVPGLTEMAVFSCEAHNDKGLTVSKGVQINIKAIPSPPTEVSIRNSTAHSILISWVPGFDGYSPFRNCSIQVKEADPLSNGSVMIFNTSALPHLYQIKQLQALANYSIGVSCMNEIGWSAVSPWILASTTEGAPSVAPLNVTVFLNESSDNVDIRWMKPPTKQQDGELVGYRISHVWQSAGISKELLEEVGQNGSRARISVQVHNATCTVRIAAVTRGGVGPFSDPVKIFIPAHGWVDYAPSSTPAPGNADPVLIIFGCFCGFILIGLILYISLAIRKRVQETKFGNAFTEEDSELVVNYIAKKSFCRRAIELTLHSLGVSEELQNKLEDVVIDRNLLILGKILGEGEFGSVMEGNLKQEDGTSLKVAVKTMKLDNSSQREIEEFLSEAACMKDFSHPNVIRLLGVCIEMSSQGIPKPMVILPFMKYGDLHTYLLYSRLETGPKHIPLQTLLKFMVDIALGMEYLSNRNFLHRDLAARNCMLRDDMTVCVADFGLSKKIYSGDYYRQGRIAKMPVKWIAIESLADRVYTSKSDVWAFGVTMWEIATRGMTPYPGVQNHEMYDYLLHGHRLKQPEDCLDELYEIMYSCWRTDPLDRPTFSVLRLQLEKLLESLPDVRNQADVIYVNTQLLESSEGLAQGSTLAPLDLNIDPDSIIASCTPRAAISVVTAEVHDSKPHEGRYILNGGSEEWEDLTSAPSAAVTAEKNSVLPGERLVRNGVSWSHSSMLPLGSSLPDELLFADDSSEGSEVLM
# Sequence of PI3Kδ (O00329 whole entry, species assumed): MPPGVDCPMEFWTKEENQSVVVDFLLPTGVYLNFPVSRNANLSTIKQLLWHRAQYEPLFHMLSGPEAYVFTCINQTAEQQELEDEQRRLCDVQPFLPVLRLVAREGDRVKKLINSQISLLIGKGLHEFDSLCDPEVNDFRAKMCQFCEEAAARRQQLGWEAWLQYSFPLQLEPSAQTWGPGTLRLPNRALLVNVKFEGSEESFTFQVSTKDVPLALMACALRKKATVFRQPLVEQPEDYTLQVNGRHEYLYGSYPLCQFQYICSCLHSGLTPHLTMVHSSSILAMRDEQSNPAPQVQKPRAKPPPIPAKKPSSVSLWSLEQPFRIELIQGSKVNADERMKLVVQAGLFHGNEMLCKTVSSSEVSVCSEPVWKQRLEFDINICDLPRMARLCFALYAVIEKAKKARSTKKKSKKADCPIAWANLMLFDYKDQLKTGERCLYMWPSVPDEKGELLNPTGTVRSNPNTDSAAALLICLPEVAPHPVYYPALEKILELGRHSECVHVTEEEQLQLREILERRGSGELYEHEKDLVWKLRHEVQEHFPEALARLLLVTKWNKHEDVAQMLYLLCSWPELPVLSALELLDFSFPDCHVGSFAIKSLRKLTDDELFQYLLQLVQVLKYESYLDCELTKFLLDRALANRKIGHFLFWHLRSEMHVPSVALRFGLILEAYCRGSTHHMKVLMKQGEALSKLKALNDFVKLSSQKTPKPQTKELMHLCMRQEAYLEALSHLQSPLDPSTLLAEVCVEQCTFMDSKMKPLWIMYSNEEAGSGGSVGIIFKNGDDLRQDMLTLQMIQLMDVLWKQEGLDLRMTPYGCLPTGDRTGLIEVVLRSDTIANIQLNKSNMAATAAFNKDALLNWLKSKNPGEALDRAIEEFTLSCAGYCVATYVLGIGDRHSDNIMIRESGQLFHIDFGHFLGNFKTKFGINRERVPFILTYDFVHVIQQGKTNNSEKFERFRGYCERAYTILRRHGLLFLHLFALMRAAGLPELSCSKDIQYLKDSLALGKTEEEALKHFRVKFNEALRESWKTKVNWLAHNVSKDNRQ
# Sequence of PI3Kδ (P27986 whole entry partner, species assumed): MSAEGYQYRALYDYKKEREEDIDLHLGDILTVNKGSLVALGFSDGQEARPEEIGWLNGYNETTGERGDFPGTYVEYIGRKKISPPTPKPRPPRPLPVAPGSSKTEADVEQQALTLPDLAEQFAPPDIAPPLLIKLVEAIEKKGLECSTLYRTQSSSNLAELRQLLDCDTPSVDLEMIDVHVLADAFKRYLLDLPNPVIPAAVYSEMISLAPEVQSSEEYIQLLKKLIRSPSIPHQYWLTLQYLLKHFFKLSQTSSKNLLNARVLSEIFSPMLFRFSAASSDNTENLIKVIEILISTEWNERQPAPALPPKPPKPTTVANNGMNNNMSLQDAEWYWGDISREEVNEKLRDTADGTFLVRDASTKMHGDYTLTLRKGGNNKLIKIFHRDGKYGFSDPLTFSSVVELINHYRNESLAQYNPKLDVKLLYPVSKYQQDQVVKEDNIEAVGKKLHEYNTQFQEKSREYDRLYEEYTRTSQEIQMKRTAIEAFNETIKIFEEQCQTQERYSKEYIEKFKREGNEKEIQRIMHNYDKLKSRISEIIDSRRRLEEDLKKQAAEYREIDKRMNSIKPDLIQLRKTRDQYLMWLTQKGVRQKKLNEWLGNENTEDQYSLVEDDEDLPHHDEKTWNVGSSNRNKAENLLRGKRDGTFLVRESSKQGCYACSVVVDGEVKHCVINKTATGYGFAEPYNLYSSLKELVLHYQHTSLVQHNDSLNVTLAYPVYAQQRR
# Sequence of Tyro3 (Q06418 41-890): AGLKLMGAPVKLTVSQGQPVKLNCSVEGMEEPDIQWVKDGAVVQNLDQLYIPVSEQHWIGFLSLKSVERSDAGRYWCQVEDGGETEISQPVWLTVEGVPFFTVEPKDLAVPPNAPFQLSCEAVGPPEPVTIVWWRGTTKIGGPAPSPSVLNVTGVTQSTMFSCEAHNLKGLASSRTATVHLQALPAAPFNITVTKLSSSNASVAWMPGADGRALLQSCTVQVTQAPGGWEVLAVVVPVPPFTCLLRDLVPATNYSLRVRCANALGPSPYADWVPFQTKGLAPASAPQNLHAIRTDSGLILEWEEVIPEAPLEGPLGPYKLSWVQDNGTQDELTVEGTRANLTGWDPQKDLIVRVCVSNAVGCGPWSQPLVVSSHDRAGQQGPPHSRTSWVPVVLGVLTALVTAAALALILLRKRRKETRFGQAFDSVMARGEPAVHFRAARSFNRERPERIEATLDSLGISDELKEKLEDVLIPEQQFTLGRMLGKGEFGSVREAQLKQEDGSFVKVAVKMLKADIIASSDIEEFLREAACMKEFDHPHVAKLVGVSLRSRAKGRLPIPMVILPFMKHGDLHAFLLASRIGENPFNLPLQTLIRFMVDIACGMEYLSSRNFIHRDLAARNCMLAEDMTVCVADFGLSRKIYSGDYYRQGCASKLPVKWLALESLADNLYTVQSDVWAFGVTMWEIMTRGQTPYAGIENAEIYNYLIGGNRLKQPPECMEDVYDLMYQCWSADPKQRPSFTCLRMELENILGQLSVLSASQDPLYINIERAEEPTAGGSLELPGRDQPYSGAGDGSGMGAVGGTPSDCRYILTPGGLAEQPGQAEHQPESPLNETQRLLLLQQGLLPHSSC
Compound,JAK2/JAK1 (JAK1),also measured
"CCCCNc1ncc2c(-c3cccc(CO)c3)nc(C3CCC(O)CC3)n2n1 (single isomer, unassigned) [8 (1st peak), 4-{2-(Butylamino)-5-[3-(hydroxymethyl)phenyl]imidazo[5,1-f][1,2,4]triazin-7-yl}cyclohexanol]",,IC50 (c-Mer): ≤ 100 nM
"CCOc1c(C(C)n2nc(C)c3c(N)ncnc32)cc(Cl)c(F)c1C1CNC(=O)C1 (single isomer, unassigned) [Compound 32b, 4-{3-[1-(4-amino-3-methyl-1H-pyrazolo[3,4-d]pyrimidin-1-yl)ethyl]-5-chloro-2-ethoxy-6-fluorophenyl}pyrrolidin-2-one]",,IC50 (PI3Kδ): < 50 nM
"CCOc1c(C(C)n2nc(C)c3c(N)ncnc32)cc(Cl)c(F)c1C1CNC(=O)C1 (single isomer, unassigned) [Compound 32c, 4-{3-[1-(4-amino-3-methyl-1H-pyrazolo[3,4-d]pyrimidin-1-yl)ethyl]-5-chloro-2-ethoxy-6-fluorophenyl}pyrrolidin-2-one]",,IC50 (PI3Kδ): < 50 nM
"CCCCNc1ncc2c(-c3ccc(CN4CCN(C)CC4)cc3)nc([C@H]3CC[C@@H](O)CC3)n2n1 [1 (2nd peak, cis-), cis-4-(2-(Butylamino)-5-{4-[(4-methylpiperazin-1-yl)methyl]phenyl}imidazo[5,1-f][1,2,4]triazin-7-yl)cyclohexanol]",,IC50 (c-Mer): ≤ 100 nM; IC50 (Tyro3): 100 to 500 nM
"CCCCNc1ncc2c(-c3ccc(CN4CCOCC4)cc3)nc([C@H]3CC[C@H](O)CC3)n2n1 [2 (1st peak, trans-), trans-4-{2-(Butylamino)-5-[4-(morpholin-4-ylmethyl)phenyl]imidazo[5,1-f][1,2,4]triazin-7-yl}cyclohexanol]",,IC50 (c-Mer): ≤ 100 nM; IC50 (Tyro3): 100 to 500 nM
"CCCCNc1ncc2c(-c3ccc(CO)cc3)nc([C@H]3CC[C@H](O)CC3)n2n1 [3 (1st peak, trans-), trans-4-{2-(Butylamino)-5-[4-(hydroxymethyl)phenyl]imidazo[5,1-f][1,2,4]triazin-7-yl}cyclohexanol]",,IC50 (c-Mer): ≤ 100 nM
"CCCCNc1ncc2c(-c3ccc(CO)cc3)nc([C@H]3CC[C@@H](O)CC3)n2n1 [3 (2nd peak, cis-), cis-4-{2-(Butylamino)-5-[4-(hydroxymethyl)phenyl]imidazo[5,1-f][1,2,4]triazin-7-yl}cyclohexanol]",,IC50 (c-Mer): > 1000 nM
"C[C@@H](O)c1nc2cnc3ccsc3c2n1[C@H]1CC[C@H](CC#N)OC1 [Compound 1, ((2R,5S)-5-{2-[(1R)-1-hydroxyethyl]-1H-imidazo[4,5-d]thieno[3,2-b]pyridin-1-yl}tetrahydro-2H-pyran-2-yl)acetonitrile]",>10,
"N#CCC(C1CCN(c2cccc(Cl)n2)C1)n1cc(-c2ncnc3[nH]ccc23)cn1 (centres unmarked) [Compound 3, 3-[1-(6-chloropyridin-2-yl)pyrrolidin-3-yl]-3-[4-(7H-pyrrolo[2,3-d]pyrimidin-4-yl)-1H-pyrazol-1-yl]propanenitrile]",>10,
"N#CCC(C1CCN(c2nc3cccnc3o2)C1)n1cc(-c2ncnc3[nH]ccc23)cn1 (centres unmarked) [Compound 4, 3-(1-[1,3]oxazolo[5,4-b]pyridin-2-ylpyrrolidin-3-yl)-3-[4-(7H-pyrrolo[2,3-d]pyrimidin-4-yl)-1H-pyrazol-1-yl]propanenitrile]",>10,
"N#CCC(CN1CCN(C(=O)c2ccc(C#N)cc2F)CC1)n1cc(-c2ncnc3[nH]ccc23)cn1 (centres unmarked) [Compound 5, 4-[(4-{3-cyano-2-[4-(7H-pyrrolo[2,3-d]pyrimidin-4-yl)-1H-pyrazol-1-yl]propyl}piperazin-1-yl)carbonyl]-3-fluorobenzonitrile]",>10,
"N#CCC(CN1CCN(C(=O)c2ccc(C#N)cc2F)CC1)n1ccc(-c2ncnc3[nH]ccc23)c1 (centres unmarked) [Compound 6, 4-[(4-{3-cyano-2-[3-(7H-pyrrolo[2,3-d]pyrimidin-4-yl)-1H-pyrrol-1-yl]propyl}piperazin-1-yl)carbonyl]-3-fluorobenzonitrile]",>10,
"N#CCC1(n2cc(-c3ncnc4[nH]ccc34)cn2)CN(C2CCN(C(=O)c3ccnc(C(F)(F)F)c3F)CC2)C1 [Compound 7, {1-{1-[3-Fluoro-2-(trifluoromethyl)isonicotinoyl]piperidin-4-yl}-3-[4-(7H-pyrrolo[2,3-d]pyrimidin-4-yl)-1H-pyrazol-1-yl]azetidin-3-yl}acetonitrile]",>10,
"N#CCC1(n2cc(-c3ncnc4[nH]ccc34)cn2)CN(C2CCN(C(=O)Nc3ccc(F)cc3C(F)(F)F)CC2)C1 [Compound 8, 4-{3-(Cyanomethyl)-3-[4-(7H-pyrrolo[2,3-d]pyrimidin-4-yl)-1H-pyrazol-1-yl]azetidin-1-yl}-N-[4-fluoro-2-(trifluoromethyl)phenyl]piperidine-1-carboxamide]",>10,
"N#CCC1(n2cc(-c3ncnc4[nH]ccc34)cn2)CN(C2CCN(C(=O)c3ccnc(C(F)(F)F)n3)CC2)C1 [Compound 9, [3-[4-(7H-pyrrolo[2,3-d]pyrimidin-4-yl)-1H-pyrazol-1-yl]-1-(1-{[2-(trifluoromethyl)pyrimidin-4-yl]carbonyl}piperidin-4-yl)azetidin-3-yl]acetonitrile]",>10,
"N#CC[C@]1(n2cc(-c3ncnc4[nH]ccc34)cn2)C[C@H](N2CCN(C(=O)c3ccnc(C(F)(F)F)n3)CC2)C1 [Compound 10, [trans-1-[4-(7H-pyrrolo[2,3-d]pyrimidin-4-yl)-1H-pyrazol-1-yl]-3-(4-{[2-(trifluoromethyl)pyrimidin-4-yl]carbonyl}piperazin-1-yl)cyclobutyl] acetonitrile]",>10,
"C[C@H](NC(=O)c1cc(F)c(N2CC(CC#N)(n3cc(-c4ncnc5[nH]ccc45)cn3)C2)cc1F)C(F)(F)F [Compound 16, 4-{3-(cyanomethyl)-3-[4-(7H-pyrrolo [2,3-d]pyrimidin-4-yl)-1H-pyrazol-1-yl]azetidin-1-yl}-2,5-difluoro-N-[(1S)-2,2,2-trifluoro-1-methylethyl] benzamide]",>10,
"N#CCC1(n2cc(-c3ncnc4[nH]ccc34)cn2)CN([C@H]2CC[C@@H](Oc3cc(CCO)nc(C(F)(F)F)n3)CC2)C1 [Compound 18, {1-(cis-4-{[6-(2-hydroxyethyl)-2-(trifluoromethyl)pyrimidin-4-yl]oxy}cyclohexyl)-3-[4-(7H-pyrrolo [2,3-d]pyrimidin-4-yl)-1H-pyrazol-1-yl]azetidin-3-yl}acetonitrile]",>10,
"CCNCc1cc(O[C@H]2CC[C@@H](N3CC(CC#N)(n4cc(-c5ncnc6[nH]ccc56)cn4)C3)CC2)nc(C(F)(F)F)c1 [Compound 19, {1-(cis-4-{[4-[(ethylamino)methyl]-6-(trifluoromethyl)pyridin-2-yl]oxy}cyclohexyl)-3-[4-(7H-pyrrolo [2,3-d]pyrimidin-4-yl)-1H-pyrazol-1-yl]azetidin-3-yl}acetonitrile]",>10,
"CC(C)(O)c1cc(O[C@H]2CC[C@@H](N3CC(CC#N)(n4cc(-c5ncnc6[nH]ccc56)cn4)C3)CC2)nc(C(F)(F)F)c1 [Compound 20, {1-(cis-4-{[4-(1-hydroxy-1-methylethyl)-6-(trifluoromethyl)pyridin-2-yl]oxy}cyclohexyl)-3-[4-(7H-pyrrolo [2,3-d]pyrimidin-4-yl)-1H-pyrazol-1-yl]azetidin-3-yl}acetonitrile]",>10,
"C[C@@H](CO)NCc1cc(OC2CCN([C@H]3C[C@](CC#N)(n4cc(-c5ncnc6[nH]ccc56)cn4)C3)CC2)nc(C(F)(F)F)c1 [Compound 23, {trans-3-(4-{[4-({[(1S)-2-hydroxy-1-methylethyl]amino}methyl)-6-(trifluoromethyl)pyridin-2-yl]oxy}piperidin-1-yl)-1-[4-(7H-pyrrolo[2,3-d]pyrimidin-4-yl)-1H-pyrazol-1-yl]cyclobutyl} acetonitrile]",>10,
"C[C@@H](O)CNCc1cc(OC2CCN([C@H]3C[C@](CC#N)(n4cc(-c5ncnc6[nH]ccc56)cn4)C3)CC2)nc(C(F)(F)F)c1 [Compound 24, {trans-3-(4-{[4-({[(2R)-2-hydroxypropyl]amino}methyl)-6-(trifluoromethyl)pyridin-2-yl]oxy}piperidin-1-yl)-1-[4-(7H-pyrrolo[2,3-d]pyrimidin-4-yl)-1H-pyrazol-1-yl]cyclobutyl} acetonitrile]",>10,
"C[C@H](O)CNCc1cc(OC2CCN([C@H]3C[C@](CC#N)(n4cc(-c5ncnc6[nH]ccc56)cn4)C3)CC2)nc(C(F)(F)F)c1 [Compound 25, {trans-3-(4-{[4-({[(2S)-2-hydroxypropyl]amino}methyl)-6-(trifluoromethyl)pyridin-2-yl]oxy}piperidin-1-yl)-1-[4-(7H-pyrrolo[2,3-d]pyrimidin-4-yl)-1H-pyrazol-1-yl]cyclobutyl} acetonitrile]",>10,
"N#CC[C@]1(n2cc(-c3ncnc4[nH]ccc34)cn2)C[C@H](N2CCC(Oc3cc(CCO)cc(C(F)(F)F)n3)CC2)C1 [Compound 26, {trans-3-(4-{[4-(2-hydroxyethyl)-6-(trifluoromethyl)pyridin-2-yl]oxy}piperidin-1-yl)-1-[4-(7H-pyrrolo[2,3-d]pyrimidin-4-yl)-1H-pyrazol-1-yl]cyclobutyl} acetonitrile]",>10,
"CCCCNc1ncc2c(-c3ccc(F)cc3)nc(C[C@H]3CC[C@H](N)CC3)n2n1 [Example 13, trans-7-[(4-Aminocyclohexyl)methyl]-N-butyl-5-(4-fluorophenyl)imidazo[5,1-f][1,2,4]triazin-2-amine]",>10,
"N[C@H]1CC[C@H](Cc2nc(-c3ccc(F)cc3)c3cnc(NCCCc4ccccc4)nn23)CC1 [Example 14, trans-7-((4-Aminocyclohexyl)methyl)-5-(4-fluorophenyl)-N-(3-phenylpropyl)imidazo [5,1-f][1,2,4]triazin-2-amine]",>10,
"trans-7-((4-Aminocyclohexyl)methyl)-5-(4-fluorophenyl)-N-(3-phenylpropyl)imidazo [5,1-f][1,2,4]triazin-2-amine [Example 14]",,IC50 (JAK1; 1 mM ATP): < 10 nM

# From patent publication US9708333B2, “Fused bicyclic 1,2,4-triazine compounds as TAM inhibitors” (Incyte Corporation, priority 2015, dated 2017)
